Assay results published in ChEMBL document CHEMBL4477251, “Vialinin A and thelephantin G, potent inhibitors of tumor necrosis factor-α production, inhibit sentrin/SUMO-specific protease 1 enzymatic activity” (Bioorg Med Chem Lett, 2016).
Calls of active or inactive are those of the source. The rule behind the calls is not given here.

Assays:
[1] = molecular target: T1, Sentrin-specific protease 1 (Homo sapiens, UniProt Q9P0U3); assay: Inhibition of full-length recombinant human 6His-tagged SENP1 expressed in Escherichia coli BL21 (DE3) preincubated for 15 mins followed by addition of SUMO1-AMC as substrate measured after 1 hr by fluorescence analysis
T1 sequence (Q9P0U3 whole entry): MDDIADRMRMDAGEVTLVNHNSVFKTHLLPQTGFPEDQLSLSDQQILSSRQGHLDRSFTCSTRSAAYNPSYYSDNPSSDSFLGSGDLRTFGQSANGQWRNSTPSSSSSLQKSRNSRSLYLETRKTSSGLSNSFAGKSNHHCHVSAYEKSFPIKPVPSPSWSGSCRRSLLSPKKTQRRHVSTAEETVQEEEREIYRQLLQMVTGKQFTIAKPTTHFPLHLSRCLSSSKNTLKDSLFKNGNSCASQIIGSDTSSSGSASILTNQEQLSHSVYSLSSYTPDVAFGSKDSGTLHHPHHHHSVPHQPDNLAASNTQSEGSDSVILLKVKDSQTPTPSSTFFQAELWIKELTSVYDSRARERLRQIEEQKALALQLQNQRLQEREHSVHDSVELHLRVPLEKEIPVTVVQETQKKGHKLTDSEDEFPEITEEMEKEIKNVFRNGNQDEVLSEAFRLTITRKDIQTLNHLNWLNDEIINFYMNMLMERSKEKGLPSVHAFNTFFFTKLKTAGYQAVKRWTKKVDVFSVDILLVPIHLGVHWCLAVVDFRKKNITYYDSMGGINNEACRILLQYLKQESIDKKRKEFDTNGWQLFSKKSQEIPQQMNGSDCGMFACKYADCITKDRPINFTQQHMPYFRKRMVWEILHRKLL

[2] = molecular target: T1, Sentrin-specific protease 1; assay: Inhibition of recombinant human 6His-tagged SENP1 catalytic domain expressed in Escherichia coli preincubated for 15 mins followed by addition of SUMO1-AMC as substrate measured after 1 hr by fluorescence analysis
[3] = molecular target: T2, Sentrin-specific protease 1 (Homo sapiens) (UniProt Q9P0U3); assay: Inhibition of SENP1 in human KU812 cells preincubated for 20 mins followed by addition of HA-SUMO1-VS as substrate measured after 2 hrs by immunoblot analysis; assay type: cell-based
T2 sequence (whole entry): T1 sequence (Q9P0U3 whole entry)

RBL-2H3 = assay: Inhibition of TNF-alpha production in antigen-stimulated rat RBL2H3 cells measured after 15 mins by ELISA; settings: RBL-2H3, 0.25 h
Mast cell = assay: Inhibition of TNF-alpha production in mouse bone marrow-derived mast cells measured after 15 mins by ELISA; assay type: functional, cell-based; settings: 0.25 h
[4] = molecular target: T1, Sentrin-specific protease 1; assay: Binding affinity to full-length recombinant human 6His-tagged SENP1 expressed in Escherichia coli BL21 (DE3)
[5] = molecular target: T1, Sentrin-specific protease 1; assay: Binding affinity to recombinant human 6His-tagged SENP1 catalytic domain expressed in Escherichia coli

SMILES: Cc1c(C)c(-c2ccc(O)cc2)c(O)c(O)c1-c1ccc(O)cc1
- IC50 [1]: 2710 nM
- IC50 [2]: 3760 nM
- inhibition [3]: Active

SMILES: O=C1C(O)=C(c2ccc(O)cc2)C(=O)C(O)=C1c1ccc(O)cc1
- IC50 [1]: 3790 nM
- IC50 [2]: 6100 nM

SMILES: Cc1c(C)c(-c2ccc(OCc3cn(CCCCCCNC(=O)CCCC[C@@H]4SC[C@@H]5NC(=O)N[C@@H]54)nn3)cc2)c(O)c(O)c1-c1ccc(O)cc1
- IC50 [1]: > 50000 nM
- IC50 [2]: 9730 nM

SMILES: O=C(Cc1ccc(O)cc1)Oc1c(OC(=O)Cc2ccc(O)cc2)c(-c2ccc(O)cc2)c(O)c(O)c1-c1ccc(O)cc1
- IC50 (RBL-2H3): 3.5 nM

SMILES: O=C(Cc1ccccc1)Oc1c(OC(=O)Cc2ccccc2)c(-c2ccc(O)cc2)c(O)c(O)c1-c1ccc(O)cc1 [VIALININ A]
- IC50 (Mast cell): 0.04 nM
- IC50 [1]: 1640 nM
- IC50 [2]: 1890 nM
- inhibition [3]: Active
- Ki [4]: 1070 nM
- Ki [5]: 930 nM

SMILES: CCN1C(=O)C=CC1=O
- inhibition [3]: Active
